Test results as given in patent US20230203044A1, “PYRAZOLO[1,5-D][1,2,4]TRIAZINE-5(4H)-ACETAMIDES AS INHIBITORS OF THE NLRP3 INFLAMMASOME” (JANSSEN PHARMACEUTICA NV, priority 2020, published 2023).

Tests used:
TNF = assay: PBMC assay: TNF cytokine levels in LPS-stimulated human PBMCs (MSD); format: cell-based; settings: 100 ng/ml LPS for 6 hrs, TNF in supernatant via MSD
In short: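 Cryopreserved healthy-donor human PBMCs (7.5×10^4 cells/well, RPMI + 10% FBS) were preincubated with 1:3 serially diluted compounds for 30 min at 37 °C. They were then stimulated with 100 ng/ml LPS (final) for 6 h. Supernatant TNF was measured by MSD, and EC50 values were derived.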

NLRP3 inflammasome = assay: PBMC assay: IL-1β in LPS-stimulated human PBMCs (MSD); format: cell-based; settings: human PBMCs, 100 ng/ml LPS for 6 hrs, IL-1β in supernatant via MSD, read-out: IL1β IC50
In short: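 Human PBMCs from healthy donors, Ficoll-isolated and cryopreserved, were plated at 7.5×10^4 cells/well in RPMI/10% FBS for 30 min at 37 °C. Cells were then stimulated with 100 ng/ml LPS (final) for 6 h. IL-1β and TNF in supernatants were quantified by MSD immunoassay.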

EC50 (TNF) [µM] | IC50 (NLRP3 inflammasome) [µM] | Compound
> 10 | > 10 | C[C@]1(O)C[C@@H](NC(=O)Cn2nc(CC3CCC3)n3nc(C4CC4)cc3c2=O)C1 [Final Cpd 198]
> 10 | > 10 | COc1ccc(-c2nn(CC(=O)N[C@H]3C[C@@](C)(O)C3)c(=O)c3cc(C4CC4)nn23)cc1 [Final Cpd 199, 2-(2-cyclopropyl-7-(4-methoxyphenyl)-4-oxopyrazolo [1,5-d] [1,2,4]triazin-5(4H)-yl)-N-((1 s,3 s)-3-hydroxy-3-methylcyclobutyl)acetamide]
> 10 | > 10 | C=CC(C)c1nn(CC(=O)N[C@H]2C[C@@](C)(O)C2)c(=O)c2cc(C3CC3)nn12 (some centres unmarked) [Final Cpd 200]
> 10 | > 10 | CCC(C)c1nn(CC(=O)N[C@H]2C[C@@](C)(O)C2)c(=O)c2cc(C3CC3)nn12 (some centres unmarked) [Final Cpd 201]
